Results as given in the supplement of paper PMC10307832.

Key:
Experiment in all cases: relative viability (nuclei count vs DMSO), 5 days (fraction); higher = more cells survive
[1] = compound: CCC1=CN=CN=C1N2CCN(CC2)CC3=NC4=C(N3)C=C(C=C4)C(F)(F)F + Cc1nc(NC(=O)N2CCC[C@H]2C(N)=O)sc1-c1ccnc(C(C)(C)C(F)(F)F)c1 [Alpelisib] (partner 2 µM)
Method in brief: (§1)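 Dosing by pin tool came one day after lung cancer cell lines were seeded in 1536-well plates, using either one drug or a fixed anchor-drug dose plus five library-drug doses (not always all listed) in √10 steps. After 5 days, nuclei were counted on 4× images. Relative viability is treated-well nuclei count divided by vehicle-well nuclei count, and values are medians of duplicate plates.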

[2] = compound: CCn1c(-c2nonc2N)nc2cnc(Oc3cccc(NC(=O)c4ccc(OCCN5CCOCC5)cc4)c3)cc21 + Nc1ncn([C@H]2C[C@H](O)[C@@H](CO)O2)c(=O)n1 [Decitabine] (partner 2 µM)
Method in brief: as §1

Mirin + Pictilisib = compound: N=C1NC(=O)/C(=C/c2ccc(O)cc2)S1 [Mirin] + CS(=O)(=O)N1CCN(Cc2cc3nc(-c4cccc5[nH]ncc45)nc(N4CCOCC4)c3s2)CC1 [Pictilisib] (partner 1 µM)
Method in brief: as §1

Mirin + Phenformin = compound: N=C1NC(=O)/C(=C/c2ccc(O)cc2)S1 [Mirin] + N=C(N)NC(=N)NCCc1ccccc1 [Phenformin] (partner 250 µM)
Method in brief: as §1

Row | Cell Line | relative viability ([1]; first compound 0.04 µM) | relative viability ([1]; first compound 0.1265 µM) | relative viability ([1]; first compound 0.4 µM) | relative viability ([1]; first compound 1.265 µM) | relative viability ([1]; first compound 4 µM) | relative viability ([2]; first compound 0.04 µM) | relative viability ([2]; first compound 0.1265 µM) | relative viability ([2]; first compound 0.4 µM) | relative viability ([2]; first compound 1.265 µM) | relative viability ([2]; first compound 4 µM) | relative viability (Mirin + Pictilisib; first compound 0.25 µM) | relative viability (Mirin + Pictilisib; first compound 0.7906 µM) | relative viability (Mirin + Pictilisib; first compound 2.5 µM) | relative viability (Mirin + Pictilisib; first compound 25 µM) | relative viability (Mirin + Phenformin; first compound 0.25 µM) | relative viability (Mirin + Phenformin; first compound 0.7906 µM) | relative viability (Mirin + Phenformin; first compound 2.5 µM) | relative viability (Mirin + Phenformin; first compound 7.906 µM) | relative viability (Mirin + Phenformin; first compound 25 µM) | relative viability (Mirin + Pictilisib; first compound 7.906 µM)
1 | HOP-62 | 1.16 | 0.962 | 0.815 | 1.01 | 1.13 | 0.226 | 0.215 | 0.23 | 0.211 | 0.202 | 0.554 | 0.33 | 0.764 | 0.496 | 0.608 | 0.707 | 0.726 | 0.596 | 0.723 | –
2 | NCI-H661 | 0.561 | 0.512 | 0.506 | – | 0.57 | 0.498 | 0.559 | 0.406 | 0.448 | 0.33 | – | 0.329 | 0.499 | 0.332 | 0.292 | 0.278 | 0.287 | 0.272 | 0.247 | –
3 | NCI-H358 | 0.892 | 0.836 | 0.833 | 0.853 | 0.747 | 0.219 | 0.273 | 0.19 | 0.198 | 0.161 | 0.357 | 0.288 | 0.415 | 0.323 | 0.344 | 0.347 | 0.318 | 0.313 | 0.213 | 0.315
4 | BEN | 0.961 | 0.965 | 0.898 | 0.574 | 0.583 | 0.734 | 0.495 | 0.451 | 0.373 | 0.489 | 0.484 | 0.656 | 0.619 | 0.312 | 0.255 | 0.288 | 0.266 | 0.248 | 0.273 | 0.416
5 | SK-MES-1 | 0.986 | 1.05 | 0.852 | 0.868 | 0.86 | 0.348 | 0.375 | 0.372 | 0.358 | 0.333 | 0.319 | 0.376 | 0.379 | 0.46 | 0.678 | 0.852 | 0.693 | 0.746 | 0.771 | 0.502
6 | NCI-H1755 | 0.881 | 0.913 | 0.923 | 0.862 | 0.895 | 0.732 | 0.72 | 0.729 | 0.719 | 0.654 | 0.475 | 0.336 | 0.479 | 0.356 | 0.617 | 0.595 | 0.683 | 0.63 | 0.678 | 0.395
7 | NCI-H2023 | 0.593 | 0.576 | 0.616 | 0.602 | 0.571 | 0.232 | 0.231 | 0.216 | 0.173 | 0.199 | 0.252 | 0.258 | 0.19 | 0.214 | 0.419 | 0.461 | 0.442 | 0.426 | 0.418 | 0.29
8 | LC-2-ad | 0.715 | 0.834 | 0.824 | 0.915 | 0.779 | 0.769 | 0.755 | 0.818 | 0.642 | 0.615 | 0.554 | 0.298 | 0.497 | 0.356 | 0.624 | 0.498 | 0.589 | 0.47 | 0.416 | 0.216
9 | NCI-H1666 | 0.877 | 0.913 | 0.903 | 0.851 | 0.95 | 0.796 | 0.787 | 0.751 | 0.653 | 0.704 | 0.445 | 0.64 | 0.365 | 0.324 | 0.568 | 0.62 | 0.598 | 0.539 | 0.49 | 0.36
10 | 201T | 1 | 0.988 | 0.995 | 0.902 | 1.06 | 0.825 | 0.834 | 0.823 | 0.86 | 0.827 | 0.704 | 0.668 | 0.614 | 0.67 | 0.463 | 0.494 | 0.454 | 0.463 | 0.568 | 0.753
11 | NCI-H2009 | 1.24 | 1.12 | 1.12 | 1.19 | 1.14 | 0.292 | 0.304 | 0.25 | 0.216 | 0.175 | 0.919 | 0.706 | 0.871 | 0.6 | 0.485 | 0.573 | 0.522 | 0.411 | 0.526 | 0.66
12 | NCI-H1395 | 1.04 | 1.1 | 1.05 | 0.951 | 1.04 | 0.701 | 0.601 | 0.646 | 0.459 | 0.521 | 0.578 | – | 0.617 | 0.512 | 0.41 | 0.421 | 0.435 | 0.463 | 0.412 | 0.549
